Laboratory results as given in patent US9409952B2, “Peptide-compound cyclization method” (Chugai Seiyaku Kabushiki Kaisha, priority 2011, dated 2016).
Read-outs that look alike come from different tables or passages of the source. Starred links: 1 amine or outer side, 2 acyl side, 3 side chain; linkers in the order of their positions; H or OH if unused. Positions of bridges follow the written chain, without caps; N, C: chain ends. Non-standard residues stand in square brackets, D forms with d. Residues, ends and D or L forms follow the SMILES beside them. ξ: configuration not given here. *: point of attachment. NMeF = CN[C@@H](Cc1ccccc1)C(=O)O; NMeGABA = CN(CCCC(=O)[*:2])[*:1]; NMeβAla = CN(CCC(=O)[*:2])[*:1]; NMeL = CN[C@@H](CC(C)C)C(=O)O; NMeA = CN[C@@H](C)C(=O)O; Piperidide = C1CCN(*)CC1; dNMeA = CN[C@H](C)C(=O)O; ξP = O=C(O)C1CCCN1; Sar = CNCC(=O)O; tBu = CC(C)(C)*

Assays:
[1] = PAMPA (parallel artificial membrane permeability assay); type: in vitro ADME; details: PAMPA
Method in brief: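 Artificial membrane was 10% (w/v) egg lecithin plus 0.5% (w/v) cholesterol in dodecane on a PVDF filter. A 10 mM DMSO stock was added at 0.5% (v/v) to donor buffer (50 mM MOPSO, pH 6.5, 5.0% glycocholic acid). After 18 h at 37 °C, LC/MS or LC/UV gave donor and acceptor levels for Pe.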

[2] = Metabolic stability in human hepatic microsome; type: in vitro ADME; details: microsomes
[3] = membrane permeation rate (Pe), 50 mM MOPSO buffer pH 6.5 with 5.0% glycocholic acid, 37° C., 18 hours, read-out: iPAMPA Pe
[4] = pH 7.4, human hepatic microsome, NADPH(+), read-out: CL NADPH(+)

SMILES | Papp at 18 hours, 50 µM [1, 3] [×10⁻⁶ cm/s] | microsomal CLint at 1 uM [2, 4] [µL/min/mg] | Papp at 18 hours, 50 µM ([1]; pH 6.5) [×10⁻⁶ cm/s] | microsomal CLint at 1 uM ([2]; human, pH 7.4, CL NADPH(+)) [µL/min/mg]
CC(C)C[C@H]1C(=O)N(C)[C@@H](CC(C)C)C(=O)N[C@@H]([C@@H](C)O)C(=O)N(C)[C@@H](Cc2ccccc2)C(=O)N[C@@H](COC(C)(C)C)C(=O)N(C)[C@@H](CC(C)C)C(=O)N[C@H](C(=O)N2CCCCC2)CC(=O)N(C)CCC(=O)N1C [DP-705] ([NMeβAla][NMeL][NMeL]T[NMeF]S(tBu)[NMeL]D-Piperidide; lactam N-8) | 49 | 265 |  | 
CC(C)C[C@@H]1NC(=O)[C@H](CC(C)C)N(C)C(=O)[C@H](CC(C)C)N(C)C(=O)C[C@@H](C(=O)N2CCCCC2)NC(=O)[C@H](Cc2ccccc2)N(C)C(=O)C2CCCN2C(=O)[C@H]([C@@H](C)O)NC(=O)[C@H](Cc2ccccc2)N(C)C1=O (stereo partly drawn) [DP-706] ([NMeL][NMeL]L[NMeF]T[ξP][NMeF]D-Piperidide; lactam N-8) |  |  | 48 | 264
CC(C)C[C@H]1C(=O)N[C@@H](COC(C)(C)C)C(=O)N[C@H](C(=O)N2CCCCC2)CC(=O)N(C)[C@@H](C)C(=O)N(C)[C@@H](Cc2ccccc2)C(=O)N(C)[C@@H](CC(C)C)C(=O)N[C@@H]([C@@H](C)O)C(=O)N(C)[C@@H](C)C(=O)N1C [DP-707] ([NMeA][NMeF][NMeL]T[NMeA][NMeL]S(tBu)D-Piperidide; lactam N-8) | 29 | 84 |  | 
CC(C)C[C@H]1C(=O)N[C@H](C(=O)N2CCCCC2)CC(=O)N[C@H](C)C(=O)N(C)[C@@H](Cc2ccccc2)C(=O)N(C)[C@@H](CC(C)C)C(=O)N[C@@H]([C@@H](C)O)C(=O)N(C)[C@@H](C)C(=O)N[C@@H](COC(C)(C)C)C(=O)N1C [DP-708] ([dA][NMeF][NMeL]T[NMeA]S(tBu)[NMeL]D-Piperidide; lactam N-8) | 16 | 35 |  | 
CC(C)C[C@H]1C(=O)N[C@@H](COC(C)(C)C)C(=O)N[C@H](C(=O)N2CCCCC2)CC(=O)N(C)CC(=O)N[C@@H]([C@@H](C)O)C(=O)N(C)[C@@H](C)C(=O)N(C)[C@@H](Cc2ccccc2)C(=O)N(C)[C@@H](Cc2ccccc2)C(=O)N1C [DP-709] ([Sar]T[NMeA][NMeF][NMeF][NMeL]S(tBu)D-Piperidide; lactam N-8) | 35 | 90 |  | 
CC(C)C[C@H]1C(=O)N(C)[C@@H](Cc2ccccc2)C(=O)N[C@H](C(=O)N2CCCCC2)CC(=O)N(C)[C@@H](C)C(=O)N[C@@H]([C@@H](C)O)C(=O)N(C)CC(=O)N[C@@H](COC(C)(C)C)C(=O)N(C)[C@@H](Cc2ccccc2)C(=O)N1C [DP-710] ([NMeA]T[Sar]S(tBu)[NMeF][NMeL][NMeF]D-Piperidide; lactam N-8) | 44 | 121 |  | 
CC(C)C[C@H]1C(=O)N[C@@H](COC(C)(C)C)C(=O)N[C@H](C(=O)N2CCCCC2)CC(=O)N[C@@H](C)C(=O)N(C)[C@@H](Cc2ccccc2)C(=O)N(C)CC(=O)N(C)[C@@H](Cc2ccccc2)C(=O)N[C@@H]([C@@H](C)O)C(=O)N1C [DP-711] (A[NMeF][Sar][NMeF]T[NMeL]S(tBu)D-Piperidide; lactam N-8) | 29 | 217 |  | 
CC(C)C[C@H]1C(=O)N(C)[C@@H](Cc2ccccc2)C(=O)N[C@H](C(=O)N2CCCCC2)CC(=O)N(C)CCCC(=O)N(C)[C@@H](C)C(=O)N(C)[C@@H](CC(C)C)C(=O)N[C@@H]([C@@H](C)O)C(=O)N(C)CC(=O)N1C [DP-712] ([NMeGABA][NMeA][NMeL]T[Sar][NMeL][NMeF]D-Piperidide; lactam N-8) | 12 | 57 |  | 
CC(C)C[C@@H]1NC(=O)[C@H](CC(C)C)N(C)C(=O)[C@H](Cc2ccccc2)N(C)C(=O)[C@H]([C@@H](C)O)NC(=O)[C@H](CC(C)C)N(C)C(=O)CN(C)C(=O)CCCN(C)C(=O)C[C@@H](C(=O)N2CCCCC2)NC1=O [DP-713] ([NMeGABA][Sar][NMeL]T[NMeF][NMeL]LD-Piperidide; lactam N-8) | 27 | 169 |  | 
CC(C)C[C@@H]1NC(=O)[C@H](CC(C)C)N(C)C(=O)[C@H]([C@@H](C)O)NC(=O)[C@H](Cc2ccccc2)N(C)C(=O)CN(C)C(=O)[C@H](CC(C)C)N(C)C(=O)[C@@H](C(C)C)NC(=O)C[C@@H](C(=O)N2CCCCC2)NC1=O [DP-714] ([dV][NMeL][Sar][NMeF]T[NMeL]LD-Piperidide; lactam N-8) | 31 | 145 |  | 
CC(C)C[C@@H]1NC(=O)[C@H](CC(C)C)N(C)C(=O)[C@H]([C@@H](C)O)NC(=O)CCCN(C)C(=O)C[C@@H](C(=O)N2CCCCC2)NC(=O)[C@H](COC(C)(C)C)NC(=O)[C@H](Cc2ccccc2)N(C)C1=O [DP-715] ([NMeGABA]T[NMeL]L[NMeF]S(tBu)D-Piperidide; lactam N-7) | 24 | 134 |  | 
CC(C)C[C@@H]1NC(=O)CCCN(C)C(=O)C[C@@H](C(=O)N2CCCCC2)NC(=O)[C@H](Cc2ccccc2)N(C)C(=O)[C@H]([C@@H](C)O)NC(=O)[C@H](CC(C)C)N(C)C(=O)[C@H](COC(C)(C)C)NC1=O [DP-716] ([NMeGABA]LS(tBu)[NMeL]T[NMeF]D-Piperidide; lactam N-7) | 21 | 133 |  | 
CC(C)C[C@H]1C(=O)N[C@@H]([C@@H](C)O)C(=O)N(C)[C@@H](CC(C)C)C(=O)N(C)CC(=O)N(C)[C@@H](Cc2ccccc2)C(=O)N[C@@H](COC(C)(C)C)C(=O)N[C@H](C(=O)N2CCCCC2)CC(=O)N1C [DP-717] ([NMeL]T[NMeL][Sar][NMeF]S(tBu)D-Piperidide; lactam N-7) | 21 | 101 |  | 
CC(C)C[C@@H]1NC(=O)C[C@@H](C(=O)N2CCCCC2)NC(=O)[C@H](COC(C)(C)C)NC(=O)[C@H]([C@@H](C)O)NC(=O)[C@H](Cc2ccccc2)N(C)C(=O)[C@H](CC(C)C)N(C)C(=O)CN(C)C1=O [DP-718] (L[Sar][NMeL][NMeF]TS(tBu)D-Piperidide; lactam N-7) | 17 | 99 |  | 
CC(C)C[C@H]1C(=O)N(C)[C@@H](CC(C)C)C(=O)N(C)[C@@H](Cc2ccccc2)C(=O)N[C@H](C(=O)N2CCCCC2)CC(=O)N[C@@H](C(C)C)C(=O)N(C)CC(=O)N[C@@H]([C@@H](C)O)C(=O)N1C [DP-719] (V[Sar]T[NMeL][NMeL][NMeF]D-Piperidide; lactam N-7) | 26 | 218 |  | 
CC(C)C[C@@H]1NC(=O)[C@H]([C@@H](C)O)NC(=O)[C@H](CC(C)C)N(C)C(=O)CN(C)C(=O)[C@H](Cc2ccccc2)N(C)C(=O)[C@H](C(C)C)NC(=O)C[C@@H](C(=O)N2CCCCC2)NC1=O [DP-720] (V[NMeF][Sar][NMeL]TLD-Piperidide; lactam N-7) | 16 | 62 |  | 
CC(C)C[C@H]1C(=O)N(C)[C@@H](CC(C)C)C(=O)N[C@H](C(=O)N2CCCCC2)CC(=O)N[C@H](C)C(=O)N(C)[C@@H](Cc2ccccc2)C(=O)N(C)[C@@H](CC(C)C)C(=O)N[C@@H]([C@@H](C)O)C(=O)N1C [DP-721] ([dA][NMeF][NMeL]T[NMeL][NMeL]D-Piperidide; lactam N-7) | 49 | 915 |  | 
CC(C)C[C@@H]1NC(=O)[C@H]([C@@H](C)O)NC(=O)[C@H](CC(C)C)N(C)C(=O)[C@H](Cc2ccccc2)N(C)C(=O)[C@H](CC(C)C)N(C)C(=O)C[C@@H](C(=O)N2CCCCC2)NC(=O)[C@H](CC(C)C)N(C)C1=O [DP-722] ([NMeL][NMeF][NMeL]TL[NMeL]D-Piperidide; lactam N-7) | 45 | 311 |  | 
CC(C)C[C@@H]1NC(=O)[C@H]([C@@H](C)O)NC(=O)[C@H](CC(C)C)N(C)C(=O)CN(C)C(=O)[C@H](Cc2ccccc2)N(C)C(=O)[C@H](CC(C)C)NC(=O)C[C@@H](C(=O)N2CCCCC2)NC1=O [DP-723] (L[NMeF][Sar][NMeL]TLD-Piperidide; lactam N-7) | 26 | 154 |  | 
CC(C)C[C@H]1C(=O)N[C@@H](COC(C)(C)C)C(=O)N(C)CC(=O)N[C@@H]([C@@H](C)O)C(=O)N[C@H](C(=O)N2CCCCC2)CC(=O)N[C@@H](C(C)C)C(=O)N(C)[C@@H](Cc2ccccc2)C(=O)N1C [DP-724] (V[NMeF][NMeL]S(tBu)[Sar]TD-Piperidide; lactam N-7) | 20 | 160 |  | 
CC(C)C[C@H]1C(=O)N[C@H](C(=O)N2CCCCC2)CC(=O)N(C)[C@H](C)C(=O)N(C)[C@@H](CC(C)C)C(=O)N[C@@H]([C@@H](C)O)C(=O)N(C)[C@@H](CC(C)C)C(=O)N[C@@H](COC(C)(C)C)C(=O)N1C [DP-725] ([dNMeA][NMeL]T[NMeL]S(tBu)[NMeL]D-Piperidide; lactam N-7) | 35 | 138 |  | 
CC(C)C[C@@H]1NC(=O)C[C@@H](C(=O)N2CCCCC2)NC(=O)[C@H](CC(C)C)N(C)C(=O)[C@H](CC(C)C)NC(=O)[C@H](CC(C)C)N(C)C(=O)[C@H]([C@@H](C)O)NC(=O)CN(C)C1=O [DP-726] (L[Sar]T[NMeL]L[NMeL]D-Piperidide; lactam N-7) | 17 | 75 |  | 
CC(C)C[C@@H]1NC(=O)[C@H](C(C)C)NC(=O)C[C@@H](C(=O)N2CCCCC2)NC(=O)[C@H]([C@@H](C)O)NC(=O)CN(C)C(=O)[C@H](CC(C)C)N(C)C(=O)[C@H](CC(C)C)N(C)C1=O [DP-727] (VL[NMeL][NMeL][Sar]TD-Piperidide; lactam N-7) | 16 | 59 |  | 
